# Laboratory results as given in patent US20180215784A1, “METHOD FOR PREPARATION OF N-ACYL PEPTIDES, POLYPEPTIDES AND PROTEINS” (NEODEL TEC LTD., priority 2015, published 2018).
# Like-named read-outs stand apart in the source and are kept apart here.
# How the values were obtained:
# [1] = system: human skin fibroblast cell line CRL1121; test: Stimulation of pro-collagen synthesis/secretion in cultured human skin fibroblasts (immunoblotting, densitometry); type: cell-based; details: for pro-collagen synthesis/secretion: serum-free medium with sodium ascorbate and 0.5% ethanol, vs control carrier, immunoblot FIG. 1
# Procedure: The effect of N-octanoyl-Gly-Pro (also referred to herein as OGP) prepared in Example 2 on intracellular synthesis of pro-collagen, the precursor of collagen, was tested. OGP was applied from a 250 mg/ml stock solution in ethanol. The composition of the solute, estimated by thin layer chromatography, was 80% OGP, 15% nicotinamide and 5% octanoic acid.
# The human skin fibroblast cell line CRL1121, obtained from ATCC (American Type Culture Collection), was used for monitoring pro-collagen synthesis. Cells were grown in high glucose-DMEM containing 10% Fetal Calf Serum and antibiotics (streptomycin and penicillin). Confluent cells were suspended and inoculated into wells in 96-well microplates at 7,500 cells/well. At confluency, the cells were placed on fresh medium plus sodium ascorbate (50 μg/ml) for 24 hrs. The cells were then washed with phosphate-buffered saline (PBS) and placed on serum-free medium containing sodium ascorbate, 0.5% ethanol and 50 μM OGP. Controls included cells placed in the same medium, without OGP. After 24 hrs incubation of the experimental and control cells, media were collected, centrifuged, and the proteins were denatured by SDS and heat, and stored at −20° C. for immunoblotting analyses. The cell layers were washed with PBS, dissolved in SDS sample buffer, centrifuged and stored at −20° C. until use.
# The relative amount of pro-collagen secreted into the medium was determined by immunoblotting with an antibody directed to the C-terminal telopeptide of the α1(I) collagen chain, followed by enhanced chemiluminescence detection and densitometry (Shalitin N, Schlesinger H, Levy, M J, Kessler E, Kessler-Icekson G. Expression of procollagen C-proteinase enhancer in cultured rat heart fibroblasts: Evidence for co-regulation with type I collagen, J. Cell. Biochem. 90:397-407, 2003). Protein concentrations in the cell lysates were determined using the Lowry method and served for standardization. The relative Optical Density of the band corresponding to the (I) chain of pro-collagen was divided by the amount of protein and was expressed as D/P (i.e. band intensity per 1 μg protein). […] FIG. 2 presents the relative amounts of the produced and secreted pro-collagen in the OGP-treated culture compared to the control.
# [2] = cited from earlier work
Compound,"pro-collagen synthesis/secretion ([1]; 50 μM OGP, 24 hrs)","pro-collagen synthesis/secretion ([1]; 50 μM OGP, 24 hrs, listed as Oct-GP)","increase of pro-collagen synthesis and secretion (factor vs control) ([1]; 50 μM OGP, 24 hrs, densitometry of control lanes 3 and 4, standardized to protein contents)","relative amounts of pro-collagen produced and secreted into the medium (D/P ratio) ([1]; Oct-GP-treated culture vs control, densitometry standardized by protein, FIG. 2)",solubility ([2]; ethanol),solubility ([2]; water)
N-octanoyl-Gly-Pro [OGP],greatly enhanced pro-collagen synthesis,stimulates pro-collagen synthesis/secretion,≥ 8.3,higher than those of the control,–,–
NC(=O)c1cccnc1 [nicotinamide],–,–,–,–,1 g/1.5 ml,1 g/mL
